Measurements reported in patent US20250231157A1, “METHOD FOR DETERMINING THE PARTITION OF NAPHTHENIC ACIDS FROM A PRODUCTION WATER MIMICKING SYSTEM AND MIMICKING SYSTEM” (PETRÓLEO BRASILEIRO S.A. – PETROBRAS, priority 2023, published 2025).

What was measured:
[1] = Partition equilibrium in the presence of demulsifiers (Dissolvan 961, Dissolvan 974)
[2] = Partition equilibrium with addition of calcium and strontium salts to the aqueous phase; format: physicochemical; conditions: for Effect of strontium ions on migration to the aqueous phase: strontium 400-2600 mg·L^−1
Description: The addition of salts to the reaction system is of fundamental importance when one intends to mimic field conditions. In this sense, in addition to continuing the study of the salinity effect (Example 4), the insertion of salts containing Ca^2+ and Sr^2+ ions, known to be present in seawater, was tested. To this end, the projects were based on the literature (Zheng, J. et al. Offshore produced water management: A review of current practice and challenges in harsh/Arctic environments. Mar. Pol. Bul. 2016, 104, 7-19) and four concentrations of each of the two ions were evaluated (400.0, 1200.0, 2600.0 and 9000.0 mg·L^−1), maintaining salinity at 3.5% (m·v^−1).
In short, the experimental results were generated in triplicate, using 99% NaCl to add salinity to the aqueous fraction and PA calcium chloride and PA strontium chloride to add calcium and strontium, respectively.
The addition of calcium and strontium to the reaction system, in the form of salts, aims at mimicking the real scenario in which both species are present (regardless of the salinity of the medium), especially in the well condition. This study aimed at understanding the effect (on the migration of acids to the organic phase) of this ion in the system also at concentrations higher than 10 mM. Finally, the experiments (in triplicate) with divalent strontium ions followed the same rationale.

[3] = Partition equilibrium under the influence of salinity (NaCl), glass reactor, neutralization titration; format: physicochemical; conditions: Salinity 0 (%, m · m^−1) NaCl
[4] = as above; format: physicochemical
Description: The variation in salinity (and its effect on acidic species) is due to the large variation in salinity found between the portions of bottom-hole water, middle-well water and surface water. Thus, systems with salinity (i.e., NaCl) between 3.5 and 30% (m·v^−1) were tested in a glass reactor, and neutralization titration was performed (in triplicate analysis), as previously described. Furthermore, the experimental results were generated in triplicate, using 99% NaCl (Sigma-Aldrich) with five acidic species.

[5] = Control experiments: availability of the species in alkaline aqueous medium without using the reactor; format: physicochemical; conditions: acid solubilized directly in aqueous phase, no reactor
Description: Previously, the back titration procedure was internalized and optimized (Example 1), ensuring that the reproducibility of the measurements was adequate (standard deviation values below 10%, for example) and that the recoveries were close to what was expected based on the purity of the reagents (i.e., close to or above 90%). […] Control experiments were performed (measuring the availability of the species in an aqueous medium, without using the reactor) by solubilizing the organic acid directly in the aqueous phase and titrating a 10.0 mL aliquot; the same way, experiments were performed in the reactor based on the standardization of heptol and salinity already discussed (3.5%).

[6] = Partition equilibrium in reactor pressurized with CO2, in presence and absence of alkalinity (NaHCO3, Na2CO3), back titration
Description: In the initial tests, 100 mL of heptol and 300 mL of water (with or without salinity) were used, with the addition of acidic species in the organic phase, in order to verify migration to the aqueous phase. As a rule, the system was kept under agitation at 500 rpm for 8 min, followed by rest for 10 min and, finally, collection of 50.0 mL aliquots of the aqueous phase for titrimetric analysis.
A 316 stainless steel alloy reactor (Parr®) (capacity for 600 mL and operational up to 20 MPa pressure) was used. For this purpose, a temperature range between 25° C. and 80° C. and pressure between 0.1 MPa and 1.0 MPa were used, and the reactor was pressurized with CO2. Thus, the results were compared (in terms of migration of the acidic species (%, mol) by means of back titrations) and the influence of pressure and temperature on the partition was estimated, as well as possible synergistic effects with the sources of alkalinity added to the aqueous phase.

[7] = Partition equilibrium in the presence of surfactants (TBA, CTA, TMA); format: physicochemical
Text: The presence of chemical compounds usually added in the chain of unit operations of oil extraction and production, such as demulsifiers and surfactants, can affect the partition equilibrium of species in this water/oil system. In order to understand the extent of this effect, as well as discern the relevance of the chemical structure on this effect, the following items were chosen: • Dissolvan 961 (Clariant), composed of oil hydrocarbons (CAS 918-811-1) and ethanol (CAS 64-17-5); • Dissolvan 974 (Clariant), composed of EO-PO block polymer poly adducts and Bisphenol-A-diglycidyl ether (CAS 68123-18-2) and ethanol (CAS 64-17-5); • Tetrabutylammonium chloride (CAS 1112-67-0), 97% purity; • Cetyltrimethylammonium chloride (CAS 112-02-7), 25% in water; and • Trimethylammonium chloride (CAS 593-81-7), 98% purity.
For this study, the experiments (in triplicate) used between 100.0 and 1000.0 mg·L^−1 of each compound, comparing the results with control tests (absence of the component), all with constant salinity at 3.5% (m·v^−1). Finally, neutralization titration with a standardized NaOH titrant solution was used to determine the effect on the partition equilibrium for four acidic species (the same as in the other examples, except for dicyclohexylacetic acid).
Considering the study with surfactants, the (individual) addition of three species to the control system was evaluated (tetrabutylammonium chloride (TBA), tetramethylammonium chloride (TMA) and cetyltrimethylammonium chloride (CTA)). For this purpose, the surfactants have distinct chemical structures, namely the size of the side chain, and their eventual effect on the partition equilibrium of the acidic species was evaluated.

[8] = Calcium 400 mg · L^−1, salinity 3.5%
[9] = Calcium 1200 mg · L^−1, salinity 3.5%
[10] = Calcium 2600 mg · L^−1, salinity 3.5%
[11] = Strontium 400 mg · L^−1, salinity 3.5%
[12] = Strontium 1200 mg · L^−1, salinity 3.5%
[13] = Strontium 2600 mg · L^−1, salinity 3.5%
[14] = Salinity 3.5 (%, m · m^−1) NaCl
[15] = Salinity 18.0 (%, m · m^−1) NaCl
[16] = Salinity 30.0 (%, m · m^−1) NaCl

O=C(O)CCCCc1ccccc1 [5-Phenylpentanoic Acid, 5-phenylpentanoic acid]
Increase in migration to the aqueous phase with demulsifier ([1]; 50 mg·L^−1 of D961): approximately 100%
Migration ([1]; Absence of ions (no demulsifier), salinity 3.5%): 10.4 %, mol
Migration ([1]; D961 50 mg · L^−1): 21.0 %, mol
Migration ([1]; D961 100 mg · L^−1): 21.0 %, mol
Migration ([1]; D961 1000 mg · L^−1): 23.0 %, mol
Migration ([1]; D974 50 mg · L^−1): 18.0 %, mol
Migration ([1]; D974 100 mg · L^−1): 16.0 %, mol
Migration ([1]; D974 1000 mg · L^−1): 14.6 %, mol
Migration ([2]; Absence of ions, salinity 3.5%): 10.4 %, mol
Migration [2, 8]: 5.5 %, mol
Migration [2, 9]: 4.7 %, mol
Migration [2, 10]: 3.4 %, mol
Migration [2, 11]: 4.4 %, mol
Migration [2, 12]: 5.3 %, mol
Migration [2, 13]: 4.8 %, mol
Effect of calcium ion on migration to the aqueous phase ([2]; calcium up to the maximum study concentrations): no variation in migration
Effect of strontium ions on migration to the aqueous phase [2]: decreased migration
Migration [3]: 24.4 %, mol
Salting out effect (reduction in the number of moles contained in the aqueous phase) ([4]; 30% (m·v^−1) NaCl versus tests without salinity): ~38%
Migration [4, 14]: 13.2 %, mol
Migration [4, 15]: 15.4 %, mol
Migration [4, 16]: 15.4 %, mol
Availability (reference value) ([5]; Na2CO3 + NaHCO3 (3.48×10^−5 mol)): 100.0 % mol
Availability (reference value) ([5]; NaHCO3 (3.45×10^−5 mol)): 100.0 % mol
Migration ([6]; 25° C. and 1.0 MPa CO2, no alkalinity): did not generate quantifiable results
Migration ([6]; Na2CO3 + NaHCO3, 25° C. and 0.1 MPa): 100.0 % mol
Migration ([6]; Na2CO3 + NaHCO3, 25° C. and 1.0 MPa CO2): 100.0 % mol
Migration ([6]; Na2CO3 + NaHCO3, 80° C. and 1.0 MPa CO2): 100.0 % mol
Migration ([6]; NaHCO3, 25° C. and 0.1 MPa): 100.0 % mol
Migration ([6]; NaHCO3, 25° C. and 1.0 MPa CO2): 100.0 % mol
Migration ([6]; NaHCO3, 80° C. and 1.0 MPa CO2): 100.0 % mol
Migration trend in the presence of alkalinity individually and together with pressure/temperature ([6]; NaHCO3 or Na2CO3 + NaHCO3, 0.1 or 1.0 MPa, 25 or 80 °C): 100%
Migration ([6]; Reference (heptol + 3.5% NaCl), no alkalinity): 10.3 % mol
Migration ([7]; Absence of surfactant, salinity 3.5%): 10.4 %, mol
Migration ([7]; CTA100 (cetyltrimethylammonium chloride 100 mg · L^−1)): 11.5 %, mol
Migration ([7]; CTA1000 (1000 mg · L^−1)): 52.6 %, mol
Migration ([7]; TBA100 (tetrabutylammonium chloride 100 mg · L^−1)): 22.0 %, mol
Migration ([7]; TBA1000 (1000 mg · L^−1)): 21.6 %, mol
Migration ([7]; TMA100 (trimethylammonium chloride 100 mg · L^−1)): 9.4 %, mol
Migration ([7]; TMA1000 (1000 mg · L^−1)): 9.1 %, mol
Increase in migration to the aqueous phase with CTA ([7]; surfactant CTA, 1000 mg·L^−1): ~500%
Increase in the tendency to migrate to the aqueous phase with TBA ([7]; surfactant TBA, noticeable from 100 mg·L^−1): 100%
Effect of TMA on partition equilibrium ([7]; surfactant TMA): no observable effect

O=C(O)C(C1CCCCC1)C1CCCCC1 [Dicyclohexylacetic Acid, dicyclohexylacetic acid]
Migration ([2]; Absence of ions, salinity 3.5%): 22.1 %, mol
Migration [2, 8]: 20.7 %, mol
Migration [2, 9]: 19.6 %, mol
Migration [2, 10]: 31.8 %, mol
Migration [2, 11]: 15.8 %, mol
Migration [2, 12]: 20.0 %, mol
Migration [2, 13]: 21.5 %, mol
Migration ([2]; before addition of calcium): 22 % (m·v^−1)
Effect of strontium ions on migration to the aqueous phase [2]: no effect
Migration [3]: 22.0 %, mol
Migration to aqueous medium, approximate level over the salinity study ([4]; 0-30% NaCl): around 20%
Effect of the addition of salinity on migration ([4]; 3.5-30% NaCl, 95% reliability): no significant effect
Migration [4, 14]: 18.1 %, mol
Migration [4, 15]: 19.9 %, mol
Migration [4, 16]: 21.5 %, mol
